A short description of series [1]: Particle size distribution, Malvern Hydro2000S (A). The format is physicochemical. Particulars: crystals of Example 1, seeded crystallisation from acetone, no milling. How it is done: The particle size distribution of olmesartan medoxomil (I) is measured utilizing: Instrument model: Malvern; Dispersion unit: Hydro2000S (A); Particle refraction index of sample: 1.427; Absorption: 0.1; Dispersant refraction index: 1.468 and Size range: 0.020-2000 μm.

The nature of series [2]: Minimum ignition energy and powder resistivity of the powder. The format is physicochemical. The note with it: observed by the present inventors; process safety for milling.

Take `CCCc1nc(C(C)(C)O)c(C(=O)OCc2oc(=O)oc2C)n1Cc1ccc(-c2ccccc2-c2nnn[nH]2)cc1` [olmesartan medoxomil, 4-(1-hydroxy-1-methylethyl)-2-propyl-1-[[2′-(1H-tetrazol-5-yl) [1, 1′-biphenyl]-4-yl]methyl]-1H-imidazole-5-carboxylic acid (5-methyl-2-oxo-1,3-dioxol-4-yl)methyl ester]: in series [1], the “particle size distribution d10” value was 0.984 μm, the “particle size distribution d50” value amounted to 8.484 μm and the “particle size distribution d90” value is reported as 18.756 μm. Also, in series [2], the minimum ignition energy entry is given as “less than 3 mJ” and the powder resistivity result is reported as “very high”.

The record behind these values is patent US20150225380A1, “Novel Method to Obtain Olmesartan Medoxomil With Reduced Particle Size” (LUPIN LIMITED, priority 2012, published 2015).
